The record followed here is paper PMC4958397, “Synthesis, antibacterial and antiproliferative potential of some new 1-pyridinecarbonyl-4-substituted thiosemicarbazide derivatives” (Medicinal Chemistry Research, 2016).

Values after ≈ are worked out from the molar mass of the structure shown. Bounds are passed on as bounds.

Assay type in all cases: cell-based
In experiment [1] the test system is Escherichia coli ATCC 25922. Kind of experiment: Disk diffusion, zone of bacterial growth inhibition. The note with it: Escherichia coli, ATCC25922, 100 μg of compound, read-out: Zone of bacterial growth inhibition, E.c. The text has this:
(§1) Panel reference strains of bacteria from the American Type Culture Collection or Polish Collection of Microorganisms, including aerobic Gram-positive bacteria: Staphylococcus aureus ATCC 25923 and Staphylococcus epidermidis ATCC 12228, and aerobic Gram-negative bacteria: Escherichia coli ATCC 25922 and Pseudomonas aeruginosa ATCC 9027, as well as microaerobic Gram-positive bacteria: Lactobacillus spp., Lactobacillus acidophilus PCM 2105, Streptococcus mutans PCM 2502 and Streptococcus sanguinis PCM 2335, were used. Microbial suspensions with an optical density of 0.5 McFarland standard at 1.5 × 10^8 CFU/mL (CFU: colony forming unit) were prepared in sterile 0.9 % NaCl. Mueller–Hinton (M–H) broth and M–H agar (Oxoid Ltd., England) for aerobic strains, and MRS Broth Lactobacillus, MRS Agar Lactobacillus (BioMaxima S.A., Poland), BHI Broth and BHI agar (BioMaxima S.A., Poland) for microaerobic strains were used in the microbial tests.
(§2) The preliminary antibacterial activity of the carbazide derivatives against human pathogenic Gram-positive, Gram-negative aerobic and microaerobic bacteria was evaluated by measuring the zones of inhibition in the disk diffusion method (Murray et al., [1995]). Each compound (100 µg) was placed on Petri plates with agar medium (previously inoculated with 0.5 McFarland standards with the tested bacterial strains). After 18 h of incubation at 37 °C (for aerobic strains) or 40 h at 35 °C (for microaerobic strains), zones of microbial growth produced around the tested substances were measured and recorded as the diameters of inhibition.

Experiment [2] relates to Lactobacillus acidophilus PCM 210. The experiment is described as above. The note with it: Lactobacillus acidophilus, PCM210, 100 μg of compound, read-out: Zone of bacterial growth inhibition, L.a.
Description: as §1, §2

A further experiment relates to Lactobacillus spp. The experiment is described as above. The following applies: Lactobacillus, 100 μg of compound, read-out: Zone of bacterial growth inhibition, L.spp.
Description: as §1, §2

Experiment [3] has as its system Pseudomonas aeruginosa ATCC 9027. Described as above. The following applies: Pseudomonas aeruginosa, ATCC9027, 100 μg of compound, read-out: Zone of bacterial growth inhibition, P.a.
Description: as §1, §2

The test system of experiment [4] is Staphylococcus aureus ATCC 25923. Described as above. The note with it: Staphylococcus aureus, ATCC25923, 100 μg of compound, read-out: Zone of bacterial growth inhibition, S.a.
Description: as §1, §2

The test system of experiment [5] is Staphylococcus epidermidis ATCC 12228. The description is as above. The note with it: Staphylococcus epidermidis, ATCC12228, 100 μg of compound, read-out: Zone of bacterial growth inhibition, S.e.
Description: as §1, §2

Experiment [6] concerns Streptococcus mutans PCM 2502. The description is as above. The following applies: Streptococcus mutans, PCM2502, 100 μg of compound, read-out: Zone of bacterial growth inhibition, S.m.
Description: as §1, §2

In experiment [7] the test system is Streptococcus sanguinis PCM 2335. The description is as above. The note with it: Streptococcus sanguinis, PCM2335, 100 μg of compound, read-out: Zone of bacterial growth inhibition, S.s.
Description: as §1, §2

The subject of experiment [8] is Escherichia coli ATCC 25922. Kind of experiment: Broth microdilution MIC. The note with it: NA means inactive; for MIC: Escherichia coli, ATCC25922, broth microdilution, read-out: Minimum inhibitory concentration (MIC), E. coli; for Minimum inhibitory concentration (MIC), E. coli: broth microdilution.
Description: as §1
(§3) A broth microdilution method was used to evaluate the minimum inhibition concentration (MIC) according to the CLSI document (CLSI performance standards for antimicrobial susceptibility testing, 2008, Eighteenth International Supplement, CLSI document M7-MIC, Clinical Laboratory Standards Institute, Wayne) with some modifications. […] A serial doubling dilution of the compounds was prepared in 96-well plates (200 μL per well). A suitable medium (M-H Broth, MRS Broth Lactobacillus, BHI Broth) was used as a diluent. The final concentrations of derivatives were 1000–0.015 μg/mL. Finally, 2 μL of inoculum of the tested bacterial strain (1.5 × 10^8 CFU/mL) was added to each well. The tests were performed either at 36 °C for 18 h (aerobic strains) or at 40 h (microaerobic strains). After incubation, the panel was digitally analyzed at 600 nm using the microplate reader Bio Tech Synergy (USA) with a dedicated software system. The growth intensity in each well was compared with the negative and positive controls.

In experiment [9] the test system is Pseudomonas aeruginosa ATCC 9027. The experiment can be described thus: Broth microdilution MIC. The note with it: Pseudomonas aeruginosa, ATCC9027, NA means inactive, read-out: Minimum inhibitory concentration (MIC), P. aeruginosa.
Description: as §1, §3
For orientation: Dilution methods test growth across graded concentrations, often in twofold steps.

Experiment [10] concerns Staphylococcus aureus ATCC 25923. The experiment can be described thus: Broth microdilution MIC. The following applies: Staphylococcus aureus, ATCC25923, NA means inactive, read-out: Minimum inhibitory concentration (MIC), S. aureus.
Description: as §1, §3

Experiment [11] relates to Staphylococcus epidermidis ATCC 12228. Kind of experiment: Broth microdilution MIC. The note with it: Staphylococcus epidermidis, ATCC12228, NA means inactive, read-out: Minimum inhibitory concentration (MIC), S. epidermidis.
Description: as §1, §3

The test system of experiment [12] is Streptococcus mutans PCM 2502. The experiment can be described thus: Broth microdilution MIC. The following applies: Streptococcus mutans, PCM2502, NA means inactive, read-out: Minimum inhibitory concentration (MIC), S. mutans.
Description: as §1, §3

The subject of experiment [13] is Streptococcus sanguinis PCM 2335. The experiment can be described thus: Broth microdilution MIC. The note with it: Streptococcus sanguinis, PCM2335, NA means inactive, read-out: Minimum inhibitory concentration (MIC), S. sanguinis.
Description: as §1, §3

Experiment [14] relates to Lactobacillus acidophilus PCM 210. The experiment can be described thus: Broth microdilution MIC. The note with it: for MIC: Lactobacillus acidophilus, PCM210, NA means inactive, read-out: Minimum inhibitory concentration (MIC), L. acidophilus.
The test system of experiment [15] is aerobic Gram-positive bacteria. The experiment can be described thus: Broth microdilution MIC, summary in text. The note with it: range over compounds and strains; read-out: MIC against aerobic Gram-positive bacteria.
Description: as §1, §3

As for `[H]/N=C(\N/C(=N/[H])NCCCCCCNC(=N)NC(=N)Nc1ccc(Cl)cc1)Nc1ccc(Cl)cc1` [CLX, chlorhexidine digluconate, reference compound], the zone of inhibition at 100 µg/disc in experiment [1] was 15 mm; in experiment [2] it was 24 mm; with Lactobacillus spp., 24 mm; in [3], 16 mm; in experiment [4], 23 mm; in experiment [5] it was 23 mm. Moreover, the zone of inhibition at 100 µg/disc was determined as 26 mm in experiment [6] and 29 mm in experiment [7]. The MIC in experiment [8] stood at 0.488 µg/mL; in experiment [9] it was 15.6 µg/mL; in experiment [10], 0.488 µg/mL; in experiment [11], 0.488 µg/mL; in experiment [12], 0.488 µg/mL; in [13] it was 7.81 µg/mL. In experiment [14], the MIC was determined as 0.976 µg/mL.
On to `O=C(NNC(=S)Nc1ccccc1Cl)c1ccccn1` [Compound 2, 4-(2-Chlorophenyl)-1-(pyridin-2-yl)carbonylthiosemicarbazide], for which the zone of inhibition at 100 µg/disc in experiment [1] was 20 mm; in [2] it was 16 mm; in the experiment with Lactobacillus spp., 24 mm; in [3] it was 4 mm; in [4] it was 17 mm; in experiment [5] it was 25 mm. The zone of inhibition at 100 µg/disc is 24 mm in experiment [6] and 0 mm in [7]. For the same molecule, the MIC in [8] is 62 to 125 µg/mL; in [9] it was 1000 µg/mL; in [10], 31.2 µg/mL; in experiment [11] it was 31.2 µg/mL; in [12] it was 250 µg/mL; in experiment [13] it was 250 µg/mL. Further, the MIC was 62.5 µg/mL (≈ 204 µM) in [14] and 15.6 to 500 µg/mL in [15]. Further, the “Minimum inhibitory concentration (MIC), E. coli” value in experiment [8] is 62.5 µg/mL.
As for `O=C(NNC(=S)Nc1ccc(Cl)cc1Cl)c1ccccn1` [Compound 4, 4-(2,4-Dichlorophenyl)-1-(pyridin-2-yl)carbonylthiosemicarbazide], the zone of inhibition at 100 µg/disc in [1] turned out to be 20 mm; in [2] it was 20 mm; in the experiment on Lactobacillus spp. it was 24 mm; in experiment [3] it was 14 mm; in experiment [4] it was 22 mm; in experiment [5], 27 mm. In addition, the zone of inhibition at 100 µg/disc in experiment [6] stood at 35 mm; in [7] it was 25 mm. Further, the MIC is 62 to 125 µg/mL in experiment [8]; 500 µg/mL in [9]; 31.2 µg/mL in [10]; 31.2 µg/mL in experiment [11]; 31.2 µg/mL in experiment [12]; 7.81 µg/mL in experiment [13]. The MIC was 31.2 µg/mL (≈ 91.6 µM) in experiment [14] and 15.6 to 500 µg/mL in [15]. In addition, the “Minimum inhibitory concentration (MIC), E. coli” value in experiment [8] turned out to be 62.5 µg/mL.
On to `CSc1ccc(NC(=S)NNC(=O)c2cccnc2)cc1` [Compound 6, 4-(4-Methylthiophenyl)-1-(pyridin-3-yl)carbonylthiosemicarbazide], for which the zone of inhibition at 100 µg/disc in [1] was 9 mm; in experiment [2] it was 0 mm; with Lactobacillus spp. it was 0 mm; in experiment [3], 0 mm; in experiment [4], 10 mm; in [5], 9 mm. Moreover, the zone of inhibition at 100 µg/disc was determined as 11 mm in experiment [6] and 19 mm in experiment [7]. Moreover, the MIC in [8] was 62 to 125 µg/mL; in experiment [9], over 1000 µg/mL; in experiment [10], 250 µg/mL; in experiment [11] it was 500 µg/mL; in experiment [12], 250 µg/mL; in experiment [13], 15.6 µg/mL. Also, the MIC is over 1000 µg/mL in [14] and 15.6 to 500 µg/mL in [15]. Further, in experiment [8], the “Minimum inhibitory concentration (MIC), E. coli” value worked out at 62.5 µg/mL. Also, the “Minimum inhibitory concentration (MIC), L. acidophilus” value in experiment [14] (NA means inactive) is recorded as “did not limit the growth”.
In the case of `O=C(NNC(=S)Nc1ccc(Cl)cc1Cl)c1cccnc1` [Compound 7, 4-(2,4-Dichlorophenyl)-1-(pyridin-3-yl)carbonylthiosemicarbazide], the zone of inhibition at 100 µg/disc came out at 9 mm in [1]; 5 mm in experiment [2]; 7 mm in the experiment on Lactobacillus spp.; 0 mm in [3]; 0 mm in experiment [4]; 10 mm in [5]. The zone of inhibition at 100 µg/disc in experiment [6] was 24 mm; in experiment [7], 10 mm. Moreover, the MIC in [8] was over 1000 µg/mL; in experiment [9], over 1000 µg/mL; in experiment [10], over 1000 µg/mL; in experiment [11], 500 µg/mL; in experiment [12], 500 µg/mL; in experiment [13] it was 1000 µg/mL. The MIC in [14] is over 1000 µg/mL.
Turning to `CCOc1ccc2nc3cc(N)ccc3c(N)c2c1` [Ethacridine lactate, ethacridine lactate, reference compound], the zone of inhibition at 100 µg/disc in [1] stood at 12 mm; in experiment [2] it was 15 mm; with Lactobacillus spp., 10 mm; in [3], 4 mm; in experiment [4] it was 10 mm; in experiment [5], 8 mm. The zone of inhibition at 100 µg/disc in experiment [6] and in [7] was 24 mm throughout. Moreover, the MIC turned out to be 15.6 µg/mL in experiment [8]; 125 µg/mL in [9]; 31.2 µg/mL in [10]; 31.2 µg/mL in experiment [11]; 62.5 µg/mL in [12]; 31.2 µg/mL in experiment [13]. Moreover, the MIC in experiment [14] came to 31.2 µg/mL.

A word on the zone of inhibition: it is the size of the clear area around the sample on an inoculated plate.
